Data from PubChem BioAssay (NCI).
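Briefly, cells in 96-well plates were exposed to five compound concentrations for 48 h, and endpoints were estimated by linear interpolation. TGI denotes the concentration required for complete inhibition of growth.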

Assays:
Assay in all cases: NCI-60 cell line screen, 48 h
[1] = tested on: A498 renal
[2] = tested on: A549 NSCLC
[3] = tested on: ACHN renal
[4] = tested on: BT-549 breast
[5] = tested on: CAKI-1 renal
[6] = tested on: CCRF-CEM leukemia
[7] = tested on: COLO 205 colon
[8] = tested on: DU-145 prostate
[9] = tested on: EKVX NSCLC
[10] = tested on: HCC-2998 colon
[11] = tested on: HCT-116 colon
[12] = tested on: HCT-15 colon
[13] = tested on: HL-60(TB) leukemia
[14] = tested on: HOP-62 NSCLC
[15] = tested on: HOP-92 NSCLC
[16] = tested on: HS 578T breast
[17] = tested on: HT29 colon
[18] = tested on: IGROV1 ovarian
[19] = tested on: K-562 leukemia
[20] = tested on: KM12 colon
[21] = tested on: LOX IMVI melanoma
[22] = tested on: M14 melanoma
[23] = tested on: MALME-3M melanoma
[24] = tested on: MCF7 breast
[25] = tested on: MDA-MB-231 breast
[26] = tested on: MDA-MB-435
[27] = tested on: MDA-N
[28] = tested on: MOLT-4 leukemia
[29] = tested on: NCI-H226 lung
[30] = tested on: NCI-H23 lung
[31] = tested on: NCI-H460 lung
[32] = tested on: NCI-H522 lung
[33] = tested on: NCI/ADR-RES ovarian
[34] = tested on: OVCAR-3 ovarian
[35] = tested on: OVCAR-4 ovarian
[36] = tested on: OVCAR-5 ovarian
[37] = tested on: OVCAR-8 ovarian
[38] = tested on: PC-3 prostate
[39] = tested on: RPMI-8226 leukemia
[40] = tested on: RXF 393 renal
[41] = tested on: SF-268 CNS
[42] = tested on: SF-539 CNS
[43] = tested on: SK-MEL-2 melanoma
[44] = tested on: SK-MEL-28 melanoma
[45] = tested on: SK-MEL-5 melanoma
[46] = tested on: SK-OV-3 ovarian
[47] = tested on: SN12C renal
[48] = tested on: SNB-19 CNS
[49] = tested on: SNB-75 CNS
[50] = tested on: SR leukemia
[51] = tested on: SW-620 colon
[52] = tested on: T-47D breast
[53] = tested on: TK-10 renal
[54] = tested on: U251 CNS
[55] = tested on: UACC-257 melanoma
[56] = tested on: UACC-62 melanoma
[57] = tested on: UO-31 renal
[58] = tested on: 786-0 renal
[59] = tested on: SF-295 CNS

In the case of `CC(NC(=O)C(NC(=O)C(NC(=O)C(F)(F)F)C(C)C)C(C)C)C(=O)Oc1c(Cl)c(Cl)c(Cl)c(Cl)c1Cl` (stereo not given), the TGI [1] is reported as greater than 100 µM, the TGI [2] is reported as greater than 100 µM and the TGI [3] is reported as greater than 100 µM. The TGI [4] was greater than 100 µM, the TGI [5] was greater than 100 µM and the TGI [6] was greater than 100 µM. The TGI [7] was greater than 100 µM, the TGI [8] was greater than 100 µM and the TGI [9] was greater than 100 µM. For the same compound, the TGI [10] was greater than 100 µM, the TGI [11] was greater than 100 µM and the TGI [12] was greater than 100 µM. For the same compound, the TGI [13] was greater than 100 µM, the TGI [14] was greater than 100 µM and the TGI [15] was greater than 100 µM. For the same compound, the TGI [16] was greater than 100 µM, the TGI [17] was greater than 100 µM and the TGI [18] was greater than 100 µM. The TGI [19] was greater than 100 µM, the TGI [20] was greater than 100 µM and the TGI [21] was greater than 100 µM. For the same compound, the TGI [22] was greater than 100 µM, the TGI [23] was greater than 100 µM and the TGI [24] was greater than 100 µM. For the same compound, the TGI [25] was greater than 100 µM, the TGI [26] was greater than 100 µM and the TGI [27] was greater than 100 µM. The TGI [28] was greater than 100 µM, the TGI [29] was greater than 100 µM and the TGI [30] was greater than 100 µM. The TGI [31] was greater than 100 µM, the TGI [32] was greater than 100 µM and the TGI [33] was greater than 100 µM. For the same compound, the TGI [34] was greater than 100 µM, the TGI [35] was greater than 100 µM and the TGI [36] was greater than 100 µM. For the same compound, the TGI [37] was greater than 100 µM, the TGI [38] was greater than 100 µM and the TGI [39] was greater than 100 µM. The TGI [40] was greater than 100 µM, the TGI [41] was greater than 100 µM and the TGI [42] was greater than 100 µM. It also gave a TGI [43] greater than 100 µM, a TGI [44] greater than 100 µM and a TGI [45] greater than 100 µM. For the same compound, the TGI [46] was greater than 100 µM, the TGI [47] was greater than 100 µM and the TGI [48] was greater than 100 µM. It also gave a TGI [49] greater than 100 µM, a TGI [50] greater than 100 µM and a TGI [51] greater than 100 µM. The TGI [52] was greater than 100 µM, the TGI [53] was greater than 100 µM and the TGI [54] was greater than 100 µM. For the same compound, the TGI [55] was greater than 100 µM, the TGI [56] was greater than 100 µM and the TGI [57] was greater than 100 µM.

For `O=C(NC12CC3CC(CC(C3)C1)C2)n1cnc2c(Cl)ncnc21`, the TGI [58] was greater than 100 µM, the TGI [1] was greater than 100 µM and the TGI [2] was greater than 100 µM. The TGI [3] was 50.8 µM, the TGI [4] was 84.1 µM and the TGI [5] was greater than 100 µM. The TGI [6] was 45.7 µM, the TGI [7] was 32.6 µM and the TGI [8] was 63.9 µM. For the same compound, the TGI [9] was 71.8 µM, the TGI [10] was 38.9 µM and the TGI [11] was greater than 100 µM. For the same compound, the TGI [12] was greater than 100 µM, the TGI [13] was 16.9 µM and the TGI [14] was greater than 100 µM. For the same compound, the TGI [15] was greater than 100 µM, the TGI [16] was 97.7 µM and the TGI [17] was 70.3 µM. For the same compound, the TGI [18] was 35.4 µM, the TGI [19] was greater than 100 µM and the TGI [20] was greater than 100 µM. The TGI [21] was 37.9 µM, the TGI [22] was 50.7 µM and the TGI [23] was greater than 100 µM. For the same compound, the TGI [24] was greater than 100 µM, the TGI [25] was greater than 100 µM and the TGI [26] was 40 µM. For the same compound, the TGI [27] was 45.9 µM, the TGI [28] was 52.2 µM and the TGI [30] was 65.4 µM. For the same compound, the TGI [31] was 75.8 µM, the TGI [32] was 97.5 µM and the TGI [33] was greater than 100 µM. For the same compound, the TGI [34] was 51.3 µM, the TGI [36] was greater than 100 µM and the TGI [37] was 66.4 µM. The TGI [38] was 66.6 µM, the TGI [39] was greater than 100 µM and the TGI [40] was greater than 100 µM. The TGI [41] was 57.4 µM, the TGI [59] was greater than 100 µM and the TGI [42] was 81.7 µM. It also gave a TGI [43] of 80.7 µM, a TGI [44] greater than 100 µM and a TGI [45] of 53.5 µM. For the same compound, the TGI [46] was 79.4 µM, the TGI [47] was greater than 100 µM and the TGI [48] was greater than 100 µM. It also gave a TGI [49] of 73.8 µM, a TGI [50] of 29 µM and a TGI [51] greater than 100 µM. It also gave a TGI [52] greater than 100 µM, a TGI [53] greater than 100 µM and a TGI [54] of 92.3 µM. It also gave a TGI [55] greater than 100 µM, a TGI [56] greater than 100 µM and a TGI [57] greater than 100 µM.

In the case of `COc1ccc2nc3c(nc2c1)C(C)(C)C=C3c1ccc(Br)cc1`, the TGI [58] is reported as greater than 100 µM, the TGI [1] is reported as greater than 100 µM and the TGI [2] is reported as greater than 100 µM. The TGI [3] was greater than 100 µM, the TGI [4] was greater than 100 µM and the TGI [5] was greater than 100 µM. It also gave a TGI [6] greater than 100 µM, a TGI [7] greater than 100 µM and a TGI [8] greater than 100 µM. It also gave a TGI [9] greater than 100 µM, a TGI [10] greater than 100 µM and a TGI [11] greater than 100 µM. It also gave a TGI [12] greater than 100 µM, a TGI [13] greater than 100 µM and a TGI [14] greater than 100 µM. For the same compound, the TGI [15] was greater than 100 µM, the TGI [16] was greater than 100 µM and the TGI [17] was greater than 100 µM. For the same compound, the TGI [18] was greater than 100 µM, the TGI [20] was greater than 100 µM and the TGI [21] was greater than 100 µM. The TGI [22] was greater than 100 µM, the TGI [23] was greater than 100 µM and the TGI [24] was greater than 100 µM. The TGI [25] was greater than 100 µM, the TGI [26] was greater than 100 µM and the TGI [27] was greater than 100 µM. The TGI [28] was greater than 100 µM, the TGI [29] was greater than 100 µM and the TGI [31] was greater than 100 µM. The TGI [32] was greater than 100 µM, the TGI [33] was greater than 100 µM and the TGI [35] was greater than 100 µM. It also gave a TGI [36] greater than 100 µM, a TGI [37] greater than 100 µM and a TGI [38] greater than 100 µM. For the same compound, the TGI [39] was greater than 100 µM, the TGI [40] was greater than 100 µM and the TGI [41] was greater than 100 µM. For the same compound, the TGI [42] was greater than 100 µM, the TGI [43] was greater than 100 µM and the TGI [45] was greater than 100 µM. It also gave a TGI [47] greater than 100 µM, a TGI [48] greater than 100 µM and a TGI [49] greater than 100 µM. It also gave a TGI [50] greater than 100 µM, a TGI [51] of 21.9 µM and a TGI [52] greater than 100 µM. It also gave a TGI [53] greater than 100 µM, a TGI [54] greater than 100 µM and a TGI [55] greater than 100 µM.
